Laboratory results taken from PubChem BioAssay (NCI).
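Compound exposure: 48 hours, 5 concentrations, 96-well plates. At the GI50, growth is halved. TGI: concentration producing complete growth inhibition.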

What was measured:
Assay in all cases: growth of human tumour cells (NCI), 48 h
[1] = tested on: 786-0 renal
[2] = tested on: A498 renal
[3] = tested on: A549 NSCLC
[4] = tested on: ACHN renal
[5] = tested on: BT-549 breast
[6] = tested on: CAKI-1 renal
[7] = tested on: CCRF-CEM leukemia
[8] = tested on: COLO 205 colon
[9] = tested on: DU-145 prostate
[10] = tested on: EKVX NSCLC
[11] = tested on: HCC-2998 colon
[12] = tested on: HCT-116 colon
[13] = tested on: HCT-15 colon
[14] = tested on: HL-60(TB) leukemia
[15] = tested on: HOP-62 NSCLC
[16] = tested on: HOP-92 NSCLC
[17] = tested on: HS 578T breast
[18] = tested on: HT29 colon
[19] = tested on: IGROV1 ovarian
[20] = tested on: K-562 leukemia
[21] = tested on: KM12 colon
[22] = tested on: LOX IMVI melanoma
[23] = tested on: M14 melanoma
[24] = tested on: MALME-3M melanoma
[25] = tested on: MCF7 breast
[26] = tested on: MDA-MB-231 breast
[27] = tested on: MDA-MB-435
[28] = tested on: MOLT-4 leukemia
[29] = tested on: NCI-H226 lung
[30] = tested on: NCI-H23 lung
[31] = tested on: NCI-H460 lung
[32] = tested on: NCI-H522 lung
[33] = tested on: NCI/ADR-RES ovarian
[34] = tested on: OVCAR-3 ovarian
[35] = tested on: OVCAR-4 ovarian
[36] = tested on: OVCAR-5 ovarian
[37] = tested on: OVCAR-8 ovarian
[38] = tested on: PC-3 prostate
[39] = tested on: RPMI-8226 leukemia
[40] = tested on: RXF 393 renal
[41] = tested on: SF-268 CNS
[42] = tested on: SF-295 CNS
[43] = tested on: SK-MEL-2 melanoma
[44] = tested on: SK-MEL-28 melanoma
[45] = tested on: SK-MEL-5 melanoma
[46] = tested on: SK-OV-3 ovarian
[47] = tested on: SN12C renal
[48] = tested on: SNB-19 CNS
[49] = tested on: SNB-75 CNS
[50] = tested on: SR leukemia
[51] = tested on: SW-620 colon
[52] = tested on: T-47D breast
[53] = tested on: TK-10 renal
[54] = tested on: U251 CNS
[55] = tested on: UACC-257 melanoma
[56] = tested on: UACC-62 melanoma
[57] = tested on: UO-31 renal

CC/C=C\C[C@H](O)C/C=C1/C(=O)C=C[C@@H]1C/C=C\CCCC(=O)OC(C)C
GI50 [1]: 1900 nM | TGI [1]: 3720 nM | GI50 [2]: 3000 nM | TGI [2]: 8120 nM | GI50 [3]: 2480 nM | TGI [3]: 5880 nM | GI50 [4]: 1880 nM | TGI [4]: 3790 nM | GI50 [5]: 1250 nM | TGI [5]: 3510 nM | GI50 [6]: 2510 nM | TGI [6]: 10300 nM | GI50 [7]: 425 nM | TGI [7]: 2530 nM | GI50 [8]: 1790 nM | TGI [8]: 3870 nM | GI50 [9]: 3050 nM | TGI [9]: 11900 nM | GI50 [10]: 3040 nM | TGI [10]: 11600 nM | GI50 [11]: 1870 nM | TGI [11]: 3380 nM | GI50 [12]: 245 nM | TGI [12]: 640 nM | GI50 [13]: 674 nM | TGI [13]: 2750 nM | GI50 [14]: 824 nM | TGI [14]: 6710 nM | GI50 [15]: 2450 nM | TGI [15]: 6010 nM | GI50 [16]: 2250 nM | TGI [16]: 4880 nM | GI50 [17]: 5210 nM | TGI [17]: 41200 nM | GI50 [18]: 1650 nM | TGI [18]: 3210 nM | GI50 [19]: 2430 nM | TGI [19]: 7750 nM | GI50 [20]: 391 nM | TGI [20]: 20700 nM | GI50 [21]: 1360 nM | TGI [21]: 3080 nM | GI50 [22]: 180 nM | TGI [22]: 410 nM | GI50 [23]: 790 nM | TGI [23]: 3170 nM | GI50 [24]: 1640 nM | TGI [24]: 3750 nM | GI50 [25]: 372 nM | TGI [25]: 2220 nM | GI50 [26]: 3170 nM | TGI [26]: 9770 nM | GI50 [27]: 572 nM | TGI [27]: 2700 nM | GI50 [28]: 1240 nM | TGI [28]: 6360 nM | GI50 [29]: 2580 nM | TGI [29]: 6080 nM | GI50 [30]: 1730 nM | TGI [30]: 4370 nM | GI50 [31]: 1680 nM | TGI [31]: 3970 nM | GI50 [32]: 1250 nM | TGI [32]: 2880 nM | GI50 [33]: 3110 nM | TGI [33]: 17200 nM | GI50 [34]: 483 nM | TGI [34]: 1710 nM | GI50 [35]: 2920 nM | TGI [35]: 14400 nM | GI50 [36]: 3070 nM | TGI [36]: 8410 nM | GI50 [37]: 2800 nM | TGI [37]: 8380 nM | GI50 [38]: 1580 nM | TGI [38]: 3490 nM | GI50 [39]: 371 nM | TGI [39]: 939 nM | GI50 [40]: 1760 nM | TGI [40]: 3270 nM | GI50 [41]: 2000 nM | TGI [41]: 6310 nM | GI50 [42]: 2910 nM | TGI [42]: 8340 nM | GI50 [43]: 2020 nM | TGI [43]: 4770 nM | GI50 [44]: 1410 nM | TGI [44]: 3050 nM | GI50 [45]: 1170 nM | TGI [45]: 2510 nM | GI50 [46]: 5010 nM | TGI [46]: 16100 nM | GI50 [47]: 2420 nM | TGI [47]: 6350 nM | GI50 [48]: 3300 nM | TGI [48]: 12800 nM | GI50 [49]: 4780 nM | TGI [49]: 19700 nM | GI50 [50]: 896 nM | TGI [50]: 5010 nM | GI50 [51]: 572 nM | TGI [51]: 2320 nM | GI50 [52]: 1370 nM | TGI [52]: 7000 nM | GI50 [53]: 3540 nM | TGI [53]: 9310 nM | GI50 [54]: 480 nM | TGI [54]: 1740 nM | GI50 [55]: 2160 nM | TGI [55]: 5490 nM | GI50 [56]: 1370 nM | TGI [56]: 3160 nM | GI50 [57]: 1840 nM | TGI [57]: 3840 nM
